The text below walks through data of patent US20220169598A1, “HALOGENATED PHENYLSULFONAMIDE HYDROXAMIC ACID COMPOUNDS, COMPOSITIONS AND USES THEREOF AS SELECTIVE HDAC6 INHIBITORS” (2681603 ONTARIO INC., priority 2019, published 2022).

One experiment has as its system MCF-7. Description: Cytotoxicity in cell lines. Type of experiment: cell-based. The following applies: Homo sapiens, MCF7; Table 4. The procedure: (§1) The cytotoxicity of exemplary compounds of the application was tested in multiple cell lines including MV-4-11, MOLM-13, MCF-7, MRC9, K562 and MM.1S. The therapeutic index was evaluated by determining the toxicity of the exemplary compounds in healthy cell lines including fibroblasts and HUVEC.

The next experiment concerns MOLM-13. Description: Cytotoxicity in cell lines. The experiment is classed as cell-based. The following applies: Homo sapiens, MOLM-13; Table 4; read-out: IC50 MOLM-13. The procedure: as §1
The next experiment concerns MV-4-11. Description: Cytotoxicity in cell lines. The following applies: Homo sapiens, MV4-11, Table 4; read-out: IC50 MV-411. The experiment is classed as cell-based. Here is the method:
as §1

For the next experiment, the target named is HDAC1 (Homo sapiens, UniProt Q13547). In words: in vitro activity-based HDAC assay. Type of experiment: biochemical. The following applies: human HDAC isoform panel, Table 1. The procedure: (§2) The exemplary compounds of Formula I and structurally related compounds were synthesized to assess their structure-activity relationship. […] The IC50 values for each exemplary compound were used to calculate the selectivity of the exemplary compounds for Formula I to HDAC6. The selectivity of each exemplary compound for HDAC6 was determined from examining the potency of HDAC6 in relation to the highest binding affinity of the other HDAC isoforms tested.
Sequence of HDAC1 (Q13547 whole entry, canonical isoform): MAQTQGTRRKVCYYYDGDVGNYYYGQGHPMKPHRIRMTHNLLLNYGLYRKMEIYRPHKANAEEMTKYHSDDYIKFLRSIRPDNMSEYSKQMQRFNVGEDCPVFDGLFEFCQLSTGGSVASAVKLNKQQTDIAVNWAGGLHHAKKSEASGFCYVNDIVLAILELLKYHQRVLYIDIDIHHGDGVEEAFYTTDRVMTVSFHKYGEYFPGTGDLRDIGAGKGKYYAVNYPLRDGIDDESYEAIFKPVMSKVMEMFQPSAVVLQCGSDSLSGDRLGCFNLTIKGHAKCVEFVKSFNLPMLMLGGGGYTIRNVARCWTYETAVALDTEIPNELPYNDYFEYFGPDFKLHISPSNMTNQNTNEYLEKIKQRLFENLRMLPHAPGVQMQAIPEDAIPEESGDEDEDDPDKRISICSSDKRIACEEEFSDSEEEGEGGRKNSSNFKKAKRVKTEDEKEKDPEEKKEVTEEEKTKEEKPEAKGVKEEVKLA

The next experiment has as its target T1, HDAC10 (Homo sapiens, UniProt Q969S8).
T1 sequence (Q969S8 1-669): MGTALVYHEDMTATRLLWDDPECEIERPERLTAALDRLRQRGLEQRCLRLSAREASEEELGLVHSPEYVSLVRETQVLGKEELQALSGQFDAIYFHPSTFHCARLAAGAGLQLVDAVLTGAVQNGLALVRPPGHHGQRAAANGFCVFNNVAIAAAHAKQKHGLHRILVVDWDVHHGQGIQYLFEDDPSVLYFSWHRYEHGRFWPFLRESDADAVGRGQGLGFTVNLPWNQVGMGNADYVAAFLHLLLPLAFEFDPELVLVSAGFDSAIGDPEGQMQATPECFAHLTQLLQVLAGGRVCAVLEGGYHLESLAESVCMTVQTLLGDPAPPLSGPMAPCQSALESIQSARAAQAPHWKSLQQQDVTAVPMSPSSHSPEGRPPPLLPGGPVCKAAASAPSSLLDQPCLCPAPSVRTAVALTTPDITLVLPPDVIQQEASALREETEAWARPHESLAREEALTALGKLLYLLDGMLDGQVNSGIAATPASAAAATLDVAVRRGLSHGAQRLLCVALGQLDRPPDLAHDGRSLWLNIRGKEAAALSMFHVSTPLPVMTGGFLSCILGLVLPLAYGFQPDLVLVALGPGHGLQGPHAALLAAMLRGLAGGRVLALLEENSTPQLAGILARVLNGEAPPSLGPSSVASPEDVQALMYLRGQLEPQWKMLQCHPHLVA
In words: in vitro activity-based HDAC assay. As to conditions: human HDAC isoform panel, Table 1. Type of experiment: biochemical. Here is the method: as §2

In another experiment the target is HDAC2 (Homo sapiens, UniProt Q92769). Description: in vitro activity-based HDAC assay. As to conditions: human HDAC isoform panel, Table 1. The experiment is classed as biochemical. Here is the method:
as §2

Another experiment has as its target HDAC4 (Homo sapiens, UniProt P56524). In words: in vitro activity-based HDAC assay. The experiment is classed as biochemical. As to conditions: human HDAC isoform panel, Table 1. Here is the method:
as §2

The target of a further experiment is HDAC5 (Homo sapiens, UniProt Q9UQL6). In words: in vitro activity-based HDAC assay. The experiment is classed as biochemical. The following applies: human HDAC isoform panel, Table 1. Here is the method: as §2
Sequence of HDAC5 (Q9UQL6 whole entry, canonical isoform): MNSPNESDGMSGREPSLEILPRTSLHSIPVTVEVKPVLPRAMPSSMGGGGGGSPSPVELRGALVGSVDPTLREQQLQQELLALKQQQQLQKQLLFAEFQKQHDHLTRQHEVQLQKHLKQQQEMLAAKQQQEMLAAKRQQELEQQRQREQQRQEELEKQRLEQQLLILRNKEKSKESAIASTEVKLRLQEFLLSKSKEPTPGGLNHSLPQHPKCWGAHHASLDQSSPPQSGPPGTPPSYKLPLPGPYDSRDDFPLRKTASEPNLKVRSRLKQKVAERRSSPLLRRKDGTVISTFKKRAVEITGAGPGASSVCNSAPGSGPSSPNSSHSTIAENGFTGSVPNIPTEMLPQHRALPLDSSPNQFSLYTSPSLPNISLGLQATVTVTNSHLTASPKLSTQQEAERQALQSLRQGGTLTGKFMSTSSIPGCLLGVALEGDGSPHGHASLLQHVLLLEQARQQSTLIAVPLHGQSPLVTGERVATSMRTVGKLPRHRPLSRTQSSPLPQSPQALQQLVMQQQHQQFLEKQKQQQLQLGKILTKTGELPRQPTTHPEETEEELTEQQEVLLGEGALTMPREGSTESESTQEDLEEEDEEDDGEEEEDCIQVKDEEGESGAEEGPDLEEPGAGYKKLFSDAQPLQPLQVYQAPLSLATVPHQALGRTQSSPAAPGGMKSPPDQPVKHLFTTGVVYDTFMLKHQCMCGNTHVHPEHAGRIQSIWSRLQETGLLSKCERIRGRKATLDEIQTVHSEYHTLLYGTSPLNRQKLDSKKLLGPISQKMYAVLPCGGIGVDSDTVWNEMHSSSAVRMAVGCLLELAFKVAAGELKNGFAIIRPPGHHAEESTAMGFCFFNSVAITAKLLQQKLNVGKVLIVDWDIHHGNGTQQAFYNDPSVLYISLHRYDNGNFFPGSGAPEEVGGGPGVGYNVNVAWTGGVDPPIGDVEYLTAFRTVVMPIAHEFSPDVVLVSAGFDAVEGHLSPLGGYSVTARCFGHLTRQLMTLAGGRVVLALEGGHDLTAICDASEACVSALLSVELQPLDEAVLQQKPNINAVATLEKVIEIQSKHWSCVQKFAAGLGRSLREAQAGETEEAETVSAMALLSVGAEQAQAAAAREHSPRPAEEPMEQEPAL
For another experiment, the target named is T2, HDAC7 (Homo sapiens, UniProt Q8WUI4).
T2 sequence (Q8WUI4 1-952): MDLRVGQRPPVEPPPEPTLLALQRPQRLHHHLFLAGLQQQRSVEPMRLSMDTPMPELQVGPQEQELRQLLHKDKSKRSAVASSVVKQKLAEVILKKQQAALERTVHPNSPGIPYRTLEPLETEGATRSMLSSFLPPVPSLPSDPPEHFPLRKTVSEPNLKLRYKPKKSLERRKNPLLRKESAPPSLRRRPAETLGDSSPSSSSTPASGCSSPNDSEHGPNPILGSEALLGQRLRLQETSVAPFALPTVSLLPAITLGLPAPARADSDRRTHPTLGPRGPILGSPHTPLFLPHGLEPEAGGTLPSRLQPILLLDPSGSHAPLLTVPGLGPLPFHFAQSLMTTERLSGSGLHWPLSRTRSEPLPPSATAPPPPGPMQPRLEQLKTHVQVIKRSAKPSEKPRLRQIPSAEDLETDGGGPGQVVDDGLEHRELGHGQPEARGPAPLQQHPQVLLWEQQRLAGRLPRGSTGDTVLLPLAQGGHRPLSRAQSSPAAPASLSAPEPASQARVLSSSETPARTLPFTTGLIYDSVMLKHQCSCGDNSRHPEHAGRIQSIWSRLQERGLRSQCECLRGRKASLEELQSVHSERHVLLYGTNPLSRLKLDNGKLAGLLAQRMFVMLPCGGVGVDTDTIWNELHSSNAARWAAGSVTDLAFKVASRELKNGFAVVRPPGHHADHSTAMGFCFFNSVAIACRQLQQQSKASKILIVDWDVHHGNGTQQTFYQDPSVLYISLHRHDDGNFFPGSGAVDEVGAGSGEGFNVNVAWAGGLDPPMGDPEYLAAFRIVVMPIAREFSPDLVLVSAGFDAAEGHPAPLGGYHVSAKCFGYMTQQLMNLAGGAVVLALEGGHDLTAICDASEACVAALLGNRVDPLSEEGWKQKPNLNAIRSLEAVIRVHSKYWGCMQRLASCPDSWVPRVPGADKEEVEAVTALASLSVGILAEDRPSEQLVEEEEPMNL
Description: in vitro activity-based HDAC assay. Type of experiment: biochemical. As to conditions: human HDAC isoform panel, Table 1. Here is the method: as §2

A further experiment has as its target HDAC9 (Homo sapiens, UniProt Q9UKV0). In words: in vitro activity-based HDAC assay. Type of experiment: biochemical. The following applies: human HDAC isoform panel, Table 1. Here is the method:
as §2

Another experiment has as its system MM.1S. Description: Cytotoxicity in cell lines. Type of experiment: cell-based. The following applies: Homo sapiens, MM1.S; Table 4. Here is the method:
as §1

In the next experiment the test system is MRC9. In words: Cytotoxicity in cell lines. The experiment is classed as cell-based. As to conditions: Table 4. Here is the method: as §1

The structures appear in SMILES notation. pIC50: −log10 of the molar value. Some results are limits rather than exact numbers.

Sequence of HDAC4 (P56524 whole entry, canonical isoform): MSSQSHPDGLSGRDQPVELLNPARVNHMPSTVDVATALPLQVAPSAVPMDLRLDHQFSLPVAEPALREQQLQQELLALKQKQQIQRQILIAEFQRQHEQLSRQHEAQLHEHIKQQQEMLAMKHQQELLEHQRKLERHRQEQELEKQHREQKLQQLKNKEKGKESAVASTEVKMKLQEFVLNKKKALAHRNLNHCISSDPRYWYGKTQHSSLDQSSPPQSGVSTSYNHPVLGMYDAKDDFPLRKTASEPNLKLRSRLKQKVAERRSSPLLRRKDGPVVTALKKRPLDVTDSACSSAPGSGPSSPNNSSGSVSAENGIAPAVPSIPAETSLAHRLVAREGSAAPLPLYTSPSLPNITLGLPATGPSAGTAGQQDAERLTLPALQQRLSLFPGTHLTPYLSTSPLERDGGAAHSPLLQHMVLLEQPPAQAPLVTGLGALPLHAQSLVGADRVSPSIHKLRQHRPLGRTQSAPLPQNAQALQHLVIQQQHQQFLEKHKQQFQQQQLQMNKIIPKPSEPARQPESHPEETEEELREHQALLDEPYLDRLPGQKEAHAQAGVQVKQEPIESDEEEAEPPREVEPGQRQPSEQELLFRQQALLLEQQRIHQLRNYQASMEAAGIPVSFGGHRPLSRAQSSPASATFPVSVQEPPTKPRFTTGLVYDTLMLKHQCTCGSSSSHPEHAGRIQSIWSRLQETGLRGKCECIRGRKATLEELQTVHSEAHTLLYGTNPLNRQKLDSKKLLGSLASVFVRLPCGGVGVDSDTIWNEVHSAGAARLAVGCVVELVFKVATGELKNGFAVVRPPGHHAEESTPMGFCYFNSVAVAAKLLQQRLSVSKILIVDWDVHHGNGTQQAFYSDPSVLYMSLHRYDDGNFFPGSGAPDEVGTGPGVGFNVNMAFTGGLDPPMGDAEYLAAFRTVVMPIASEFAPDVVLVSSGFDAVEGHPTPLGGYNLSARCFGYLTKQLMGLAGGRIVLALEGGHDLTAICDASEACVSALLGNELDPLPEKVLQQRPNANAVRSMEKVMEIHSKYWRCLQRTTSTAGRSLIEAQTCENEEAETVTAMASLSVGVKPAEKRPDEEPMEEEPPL
Sequence of HDAC9 (Q9UKV0 whole entry, canonical isoform): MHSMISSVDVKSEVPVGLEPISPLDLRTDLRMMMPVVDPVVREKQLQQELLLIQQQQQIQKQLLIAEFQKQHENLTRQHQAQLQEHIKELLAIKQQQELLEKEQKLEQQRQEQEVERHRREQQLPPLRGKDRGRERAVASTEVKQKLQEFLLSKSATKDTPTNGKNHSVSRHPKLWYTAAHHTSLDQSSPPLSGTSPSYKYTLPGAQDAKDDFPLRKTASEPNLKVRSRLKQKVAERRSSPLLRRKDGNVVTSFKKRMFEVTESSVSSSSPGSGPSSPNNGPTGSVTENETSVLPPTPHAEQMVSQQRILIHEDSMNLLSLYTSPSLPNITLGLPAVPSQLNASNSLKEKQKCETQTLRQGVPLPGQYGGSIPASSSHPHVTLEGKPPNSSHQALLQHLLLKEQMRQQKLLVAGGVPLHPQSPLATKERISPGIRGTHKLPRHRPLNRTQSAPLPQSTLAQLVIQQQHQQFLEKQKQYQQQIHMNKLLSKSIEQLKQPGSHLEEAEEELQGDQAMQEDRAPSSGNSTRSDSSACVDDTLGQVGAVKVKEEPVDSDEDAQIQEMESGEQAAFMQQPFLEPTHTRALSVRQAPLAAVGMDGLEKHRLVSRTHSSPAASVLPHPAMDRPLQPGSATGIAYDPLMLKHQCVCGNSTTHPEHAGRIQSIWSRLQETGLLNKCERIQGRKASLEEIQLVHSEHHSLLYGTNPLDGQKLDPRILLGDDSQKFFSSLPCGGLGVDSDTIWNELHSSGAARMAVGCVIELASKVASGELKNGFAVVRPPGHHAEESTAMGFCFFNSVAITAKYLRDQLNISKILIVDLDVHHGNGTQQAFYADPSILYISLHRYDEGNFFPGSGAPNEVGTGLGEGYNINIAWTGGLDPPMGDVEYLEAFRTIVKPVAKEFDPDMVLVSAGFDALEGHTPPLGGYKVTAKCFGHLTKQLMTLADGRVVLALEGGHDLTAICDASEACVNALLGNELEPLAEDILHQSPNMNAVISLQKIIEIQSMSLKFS
Sequence of HDAC2 (Q92769 whole entry, canonical isoform): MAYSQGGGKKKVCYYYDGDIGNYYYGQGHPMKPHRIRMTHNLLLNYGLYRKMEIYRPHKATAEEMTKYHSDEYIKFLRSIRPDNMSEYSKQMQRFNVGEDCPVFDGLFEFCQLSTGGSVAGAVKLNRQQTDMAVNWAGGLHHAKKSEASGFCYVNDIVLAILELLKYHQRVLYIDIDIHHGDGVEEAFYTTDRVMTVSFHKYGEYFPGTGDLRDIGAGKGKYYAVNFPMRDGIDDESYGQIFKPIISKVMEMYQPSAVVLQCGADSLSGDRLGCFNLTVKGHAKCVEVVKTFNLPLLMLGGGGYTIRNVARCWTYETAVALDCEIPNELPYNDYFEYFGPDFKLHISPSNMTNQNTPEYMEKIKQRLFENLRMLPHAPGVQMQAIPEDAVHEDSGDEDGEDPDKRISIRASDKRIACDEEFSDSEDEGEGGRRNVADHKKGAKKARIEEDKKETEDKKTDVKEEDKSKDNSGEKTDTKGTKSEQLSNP

In general, pIC50 refers to the negative decadic logarithm of the IC50, by convention in mol/L. As to `O=C(NO)c1ccc(CN(Cc2cccnc2)S(=O)(=O)c2cc(F)c(F)c(F)c2F)c(C(F)(F)F)c1` [Compound I-31, N-hydroxy-4-((2,3,4,5-tetrafluoro-N-(pyridin-3-ylmethyl)phenylsulfonamido)methyl)-3-(trifluoromethyl)benzamide], the negative logarithm of the IC50 (pIC50) in the experiment on MCF-7 is 5.30; with MOLM-13 it was 5.80; in the experiment on MV-4-11 it was 5.47.

With `CC(C)N(Cc1ccc(C(=O)NO)cc1F)S(=O)(=O)c1cc(F)c(F)c(F)c1F` [Compound I-50, 3-fluoro-N-hydroxy-4-(((2,3,4,5-tetrafluoro-N-isopropylphenyl)sulfonamido)methyl)benzamide], the negative logarithm of the IC50 (pIC50) against HDAC1, against HDAC10, against HDAC2, at HDAC4, against HDAC5 and on HDAC7 was < 6.00 in each case. Moreover, the pIC50 on HDAC9 was < 6.00; in the experiment with MM.1S it was 5.92; in the experiment on MRC9, < 4.30; in the experiment on MV-4-11 it was 5.80.
